From article PMC5488091, “Tellurite and Tellurate Reduction by the Aerobic Anoxygenic Phototroph Erythromonas ursincola, Strain KR99 Is Carried out by a Novel Membrane Associated Enzyme” (Microorganisms, 2017)
Like-named read-outs stand apart in the source and are kept apart here. Each block holds one compound with its values, some of them ahead of it.

Assays:
[1] = system: T1, tellurite reductase (membrane associated tellurite/tellurate reductase); assay: spectrophotometric tellurite reduction at […] nm; format: biochemical, Blastomonas ursincola; conditions: electron donor; co-substrate tellurite; pH 7.0, 28 °C
T1 construct: native enzyme purified from Triton X-100 solubilised membranes of KR99; 117 kDa heterodimer (62 + 55 kDa, 1:1); MS nearest match GroEL of Blastomonas sp

[2] = system: T1, tellurite reductase (membrane associated tellurite/tellurate reductase); format: biochemical, Blastomonas ursincola; conditions: co-substrate NADH (25 µL of 5 mM stock as printed), Tris HCl pH 7.0, 28 °C
[3] = target: tellurite reductase 55 kDa subunit of Erythromonas ursincola, strain KR99 (Erythromonas ursincola, strain KR99 (endogenous)); assay: SEC; endogenous enzyme co-purified from solubilised membranes; single band on 5% native PAGE; native mass by Superdex S-200 gel filtration in 20 mM Tris HCl pH 8.0; subunits by SDS-PAGE (12%) after boiling in 1% SDS with 2-mercaptoethanol

Km [1]: 81.5 µM
Compound: NC(=O)C1=CN([C@@H]2O[C@H](COP(=O)(O)OP(=O)(O)OC[C@H]3O[C@@H](n4cnc5c(N)ncnc54)[C@H](O)[C@@H]3O)[C@@H](O)[C@H]2O)C=CC1 [NADH]

Compound: O=[Te](=O)(O)O [tellurate]
Km ([2]; tellurate 0–5 mM): 1440 µM

Compound: O=[Te](O)O [tellurite]
Km ([2]; tellurite 0–13 mM): 3360 µM

stoichiometry N [3]: 1
Compound: tellurite reductase 62 kDa subunit of Erythromonas ursincola, strain KR99 (natural protein)
